Assay results: PubChem BioAssay (NCI)
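Following 48 hours of exposure in 96-well plates, responses at five concentrations were used to interpolate endpoints linearly. The concentration for full growth arrest is given as TGI.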

Tests used:
Assay in all cases: DTP human tumour cell line panel, 48 h
786-0 renal = tested on: 786-0 renal
A498 renal = tested on: A498 renal
ACHN renal = tested on: ACHN renal
BT-549 breast = tested on: BT-549 breast
CAKI-1 renal = tested on: CAKI-1 renal
CCRF-CEM leukemia = tested on: CCRF-CEM leukemia
COLO 205 colon = tested on: COLO 205 colon
DLD-1 colon = tested on: DLD-1 colon
DMS 114 small cell lung = tested on: DMS 114 small cell lung
DMS 273 small cell lung = tested on: DMS 273 small cell lung
DU-145 prostate = tested on: DU-145 prostate
EKVX NSCLC = tested on: EKVX NSCLC
HCC-2998 colon = tested on: HCC-2998 colon
HCT-116 colon = tested on: HCT-116 colon
HCT-15 colon = tested on: HCT-15 colon
HOP-18 NSCLC = tested on: HOP-18 NSCLC
HOP-62 NSCLC = tested on: HOP-62 NSCLC
HOP-92 NSCLC = tested on: HOP-92 NSCLC
HT29 colon = tested on: HT29 colon
IGROV1 ovarian = tested on: IGROV1 ovarian
KM12 colon = tested on: KM12 colon
KM20L2 colon = tested on: KM20L2 colon
LXFL 529 NSCLC = tested on: LXFL 529 NSCLC
M14 melanoma = tested on: M14 melanoma
M19-MEL melanoma = tested on: M19-MEL melanoma
MALME-3M melanoma = tested on: MALME-3M melanoma
MDA-MB-231 breast = tested on: MDA-MB-231 breast
MDA-MB-435 = tested on: MDA-MB-435
NCI-H226 lung = tested on: NCI-H226 lung
NCI-H23 lung = tested on: NCI-H23 lung
NCI-H460 lung = tested on: NCI-H460 lung
NCI-H522 lung = tested on: NCI-H522 lung
NCI/ADR-RES ovarian = tested on: NCI/ADR-RES ovarian
OVCAR-3 ovarian = tested on: OVCAR-3 ovarian
OVCAR-4 ovarian = tested on: OVCAR-4 ovarian
OVCAR-5 ovarian = tested on: OVCAR-5 ovarian
OVCAR-8 ovarian = tested on: OVCAR-8 ovarian
PC-3 prostate = tested on: PC-3 prostate
RXF 393 renal = tested on: RXF 393 renal
RXF-631 renal = tested on: RXF-631 renal
SF-268 CNS = tested on: SF-268 CNS
SF-295 CNS = tested on: SF-295 CNS
SF-539 CNS = tested on: SF-539 CNS
SK-MEL-2 melanoma = tested on: SK-MEL-2 melanoma
SK-MEL-5 melanoma = tested on: SK-MEL-5 melanoma
SK-OV-3 ovarian = tested on: SK-OV-3 ovarian
SN12C renal = tested on: SN12C renal
SNB-19 CNS = tested on: SNB-19 CNS
SNB-75 CNS = tested on: SNB-75 CNS
SR leukemia = tested on: SR leukemia
SW-620 colon = tested on: SW-620 colon
T-47D breast = tested on: T-47D breast
TK-10 renal = tested on: TK-10 renal
U251 CNS = tested on: U251 CNS
UACC-257 melanoma = tested on: UACC-257 melanoma
UACC-62 melanoma = tested on: UACC-62 melanoma
UO-31 renal = tested on: UO-31 renal
XF 498 CNS = tested on: XF 498 CNS
HL-60(TB) leukemia = tested on: HL-60(TB) leukemia
K-562 leukemia = tested on: K-562 leukemia
LOX IMVI melanoma = tested on: LOX IMVI melanoma
MOLT-4 leukemia = tested on: MOLT-4 leukemia
RPMI-8226 leukemia = tested on: RPMI-8226 leukemia
SK-MEL-28 melanoma = tested on: SK-MEL-28 melanoma
SNB-78 CNS = tested on: SNB-78 CNS
A549 NSCLC = tested on: A549 NSCLC

Work on `c1ccc2c(NCCCCCCCCNc3c4ccccc4nc4ccccc34)c3ccccc3nc2c1` yielded a TGI (786-0 renal) of 1.95 µM, a TGI (A498 renal) of 2.68 µM and a TGI (ACHN renal) of 1.82 µM. The TGI (BT-549 breast) was 2.76 µM, the TGI (CAKI-1 renal) was 2.18 µM and the TGI (CCRF-CEM leukemia) was 2.15 µM. The TGI (COLO 205 colon) was 1.61 µM, the TGI (DLD-1 colon) was 2.4 µM and the TGI (DMS 114 small cell lung) was 2.42 µM. The TGI (DMS 273 small cell lung) was 1.26 µM, the TGI (DU-145 prostate) was 1.94 µM and the TGI (EKVX NSCLC) was 2.8 µM. For the same compound, the TGI (HCC-2998 colon) was 3.61 µM, the TGI (HCT-116 colon) was 1.26 µM and the TGI (HCT-15 colon) was 2.48 µM. The TGI (HOP-18 NSCLC) was 5.19 µM, the TGI (HOP-62 NSCLC) was 2.24 µM and the TGI (HOP-92 NSCLC) was 2.87 µM. For the same compound, the TGI (HT29 colon) was 1.57 µM, the TGI (IGROV1 ovarian) was 1.8 µM and the TGI (KM12 colon) was 1.59 µM. It also gave a TGI (KM20L2 colon) of 2.55 µM, a TGI (LXFL 529 NSCLC) of 1.81 µM and a TGI (M14 melanoma) of 2.52 µM. The TGI (M19-MEL melanoma) was 2.27 µM, the TGI (MALME-3M melanoma) was 2.63 µM and the TGI (MDA-MB-231 breast) was 1.74 µM. It also gave a TGI (MDA-MB-435) of 2.35 µM, a TGI (NCI-H226 lung) of 2.59 µM and a TGI (NCI-H23 lung) of 1.73 µM. The TGI (NCI-H460 lung) was 1.33 µM, the TGI (NCI-H522 lung) was 1.88 µM and the TGI (NCI/ADR-RES ovarian) was 41.9 µM. The TGI (OVCAR-3 ovarian) was 3.22 µM, the TGI (OVCAR-4 ovarian) was 2.41 µM and the TGI (OVCAR-5 ovarian) was 2.2 µM. The TGI (OVCAR-8 ovarian) was 2.45 µM, the TGI (PC-3 prostate) was 1.67 µM and the TGI (RXF 393 renal) was 0.387 µM. For the same compound, the TGI (RXF-631 renal) was 1.93 µM, the TGI (SF-268 CNS) was 2.1 µM and the TGI (SF-295 CNS) was 2.21 µM. It also gave a TGI (SF-539 CNS) of 1.15 µM, a TGI (SK-MEL-2 melanoma) of 2.23 µM and a TGI (SK-MEL-5 melanoma) of 2.71 µM. For the same compound, the TGI (SK-OV-3 ovarian) was 2.71 µM, the TGI (SN12C renal) was 2.18 µM and the TGI (SNB-19 CNS) was 3.43 µM. The TGI (SNB-75 CNS) was 2.62 µM, the TGI (SR leukemia) was 0.755 µM and the TGI (SW-620 colon) was 1.71 µM. It also gave a TGI (T-47D breast) of 3.2 µM, a TGI (TK-10 renal) of 5.98 µM and a TGI (U251 CNS) of 2.09 µM. It also gave a TGI (UACC-257 melanoma) of 3.02 µM, a TGI (UACC-62 melanoma) of 2.19 µM and a TGI (UO-31 renal) of 2.76 µM. It also gave a TGI (XF 498 CNS) of 2.25 µM.
`CC1=C2N3C[C@@H](n4c(=O)n(C)c(=O)n43)C23CCC1n1c(=O)n(C)c(=O)n13` was tested, and the TGI (786-0 renal) was over 100 µM, the TGI (A498 renal) was over 100 µM and the TGI (ACHN renal) was over 100 µM. For the same compound, the TGI (CAKI-1 renal) was over 100 µM, the TGI (CCRF-CEM leukemia) was over 100 µM and the TGI (COLO 205 colon) was over 100 µM. It also gave a TGI (DLD-1 colon) of over 100 µM, a TGI (DMS 114 small cell lung) of 76.3 µM and a TGI (DMS 273 small cell lung) of over 100 µM. For the same compound, the TGI (EKVX NSCLC) was over 100 µM, the TGI (HCC-2998 colon) was over 100 µM and the TGI (HCT-15 colon) was 52.8 µM. The TGI (HL-60(TB) leukemia) was over 100 µM, the TGI (HOP-18 NSCLC) was over 100 µM and the TGI (HOP-62 NSCLC) was over 100 µM. It also gave a TGI (HT29 colon) of over 100 µM, a TGI (IGROV1 ovarian) of over 100 µM and a TGI (K-562 leukemia) of over 100 µM. For the same compound, the TGI (KM12 colon) was over 100 µM, the TGI (KM20L2 colon) was over 100 µM and the TGI (LOX IMVI melanoma) was over 100 µM. For the same compound, the TGI (LXFL 529 NSCLC) was over 100 µM, the TGI (M14 melanoma) was over 100 µM and the TGI (M19-MEL melanoma) was over 100 µM. It also gave a TGI (MALME-3M melanoma) of over 100 µM, a TGI (MOLT-4 leukemia) of over 100 µM and a TGI (NCI-H226 lung) of over 100 µM. For the same compound, the TGI (NCI-H23 lung) was over 100 µM, the TGI (NCI-H460 lung) was over 100 µM and the TGI (OVCAR-4 ovarian) was over 100 µM. For the same compound, the TGI (OVCAR-5 ovarian) was over 100 µM, the TGI (OVCAR-8 ovarian) was over 100 µM and the TGI (RPMI-8226 leukemia) was over 100 µM. It also gave a TGI (SF-268 CNS) of over 100 µM, a TGI (SF-295 CNS) of over 100 µM and a TGI (SF-539 CNS) of over 100 µM. For the same compound, the TGI (SK-MEL-28 melanoma) was over 100 µM, the TGI (SK-MEL-5 melanoma) was over 100 µM and the TGI (SN12C renal) was over 100 µM. It also gave a TGI (SNB-19 CNS) of over 100 µM, a TGI (SNB-75 CNS) of over 100 µM and a TGI (SNB-78 CNS) of over 100 µM. For the same compound, the TGI (SW-620 colon) was 54.8 µM, the TGI (TK-10 renal) was over 100 µM and the TGI (UACC-257 melanoma) was over 100 µM. For the same compound, the TGI (UACC-62 melanoma) was over 100 µM, the TGI (UO-31 renal) was over 100 µM and the TGI (XF 498 CNS) was over 100 µM.
`c1ccc(COc2ccc3[nH]c4c(ncc5[nH]c6ccccc6c54)c3c2)cc1` showed a TGI (786-0 renal) of 18.5 µM, a TGI (A498 renal) of 41.6 µM and a TGI (A549 NSCLC) of 34.9 µM. For the same compound, the TGI (ACHN renal) was 31.6 µM, the TGI (CAKI-1 renal) was 47.5 µM and the TGI (CCRF-CEM leukemia) was 40.7 µM. The TGI (COLO 205 colon) was 47.1 µM, the TGI (DLD-1 colon) was 17.7 µM and the TGI (DMS 114 small cell lung) was 38.3 µM. It also gave a TGI (DMS 273 small cell lung) of 30.4 µM, a TGI (EKVX NSCLC) of 32.4 µM and a TGI (HCC-2998 colon) of 23.6 µM. For the same compound, the TGI (HCT-116 colon) was 27 µM, the TGI (HCT-15 colon) was 14.9 µM and the TGI (HL-60(TB) leukemia) was 4.35 µM. The TGI (HOP-18 NSCLC) was 26.1 µM, the TGI (HOP-62 NSCLC) was 30.5 µM and the TGI (HOP-92 NSCLC) was 29.9 µM. For the same compound, the TGI (HT29 colon) was 17.8 µM, the TGI (IGROV1 ovarian) was 18.9 µM and the TGI (K-562 leukemia) was 6.11 µM. It also gave a TGI (KM12 colon) of 29.5 µM, a TGI (KM20L2 colon) of 20.4 µM and a TGI (LOX IMVI melanoma) of 32.9 µM. For the same compound, the TGI (LXFL 529 NSCLC) was 29.5 µM, the TGI (M14 melanoma) was 26.7 µM and the TGI (MALME-3M melanoma) was 18.2 µM. The TGI (MOLT-4 leukemia) was 31.6 µM, the TGI (NCI-H226 lung) was 30.9 µM and the TGI (NCI-H23 lung) was 35.3 µM. It also gave a TGI (NCI-H460 lung) of 37 µM, a TGI (NCI-H522 lung) of 31.9 µM and a TGI (OVCAR-3 ovarian) of 30.3 µM. For the same compound, the TGI (OVCAR-5 ovarian) was 33.6 µM, the TGI (OVCAR-8 ovarian) was 32.2 µM and the TGI (RPMI-8226 leukemia) was 8.01 µM. The TGI (RXF 393 renal) was 23.3 µM, the TGI (SF-268 CNS) was 34.6 µM and the TGI (SF-295 CNS) was 28.2 µM. The TGI (SF-539 CNS) was 29.4 µM, the TGI (SK-MEL-2 melanoma) was 30.8 µM and the TGI (SK-MEL-28 melanoma) was 31.6 µM. For the same compound, the TGI (SK-MEL-5 melanoma) was 30 µM, the TGI (SK-OV-3 ovarian) was 32.9 µM and the TGI (SN12C renal) was 29.7 µM. The TGI (SNB-19 CNS) was 33.5 µM, the TGI (SNB-75 CNS) was 25.5 µM and the TGI (SNB-78 CNS) was 40 µM. For the same compound, the TGI (SR leukemia) was 30.3 µM, the TGI (SW-620 colon) was 32.3 µM and the TGI (TK-10 renal) was 40.8 µM. For the same compound, the TGI (U251 CNS) was 24.4 µM, the TGI (UACC-257 melanoma) was 32.8 µM and the TGI (UACC-62 melanoma) was 35.3 µM. For the same compound, the TGI (UO-31 renal) was 32.8 µM and the TGI (XF 498 CNS) was 26.6 µM.
